Values of other authors in PMC11952222, “Development and comparison of single FLT3-inhibitors to dual FLT3/TAF1-inhibitors as an anti-leukemic approach” (PLOS One, 2025).

Test system: TAF1
Conditions: reference compounds; read-out: TAF1 IC50, literature-reported; cited from earlier work

For `Cc1cc2c(cc1N1C(=O)c3cccc4c(CCCO)ccc(c34)C1=O)n(C)c(=O)n2C` [BAY299], the IC50 is given as 8 nM.
